Source: patent US4517299A, “Acetylesterases” (Fujisawa Pharmaceutical Co., Ltd., priority 1980, dated 1985)

What was measured:
[1] = system: Aureobasidium pullulans IFO 4466 Acetylesterase 4466-II (Enzyme solution B); assay: Determination of Km, hydrolysis of cephalosporin C to deacetylcephalosporin C (HPLC); type: biochemical; details: 0.05M acetate buffer pH 4.0, 30° C., one hour, cephalosporin C sodium dihydrate 0.2-5%, read-out: Km (substrate cephalosporin C)
Protocol: (§1) (In case that the substrate is cephalosporin C)
(§2) Km values of Acetylesterase 4466-I and Acetylesterase 4466-II were determined in the following method.
(§3) To 0.05M acetate buffer solution (pH 4.0) containing cephalosporin C sodium dihydrate in a various concentration (0.2-5%)(4.5 ml), was added enzyme solution (0.5 ml).
(§4) The reaction mixture was incubated on a shaker at 30° C. for an hour. Subsequently, produced deacetyl cephalosporin C and unreacted cephalosporin C were determined by high pressure liquid chromatography. Km values of each esterase were calculated in a conventional manner.

[2] = system: Aureobasidium pullulans IFO 4466 Acetylesterase 4466-I (Enzyme solution A); assay: as above; type: biochemical; details: 0.05M acetate buffer pH 4.0, 30° C., one hour, cephalosporin C sodium dihydrate 0.2-5%, read-out: Km (substrate cephalosporin C)
Protocol: as §1, §2, §3, §4

CC(=O)OCC1=C(C(=O)O)N2C(=O)[C@@H](NC(=O)CCC[C@@H](N)C(=O)O)[C@H]2SC1 [cephalosporin C]
Km [1]: 13.7 mM
Km [2]: 11.5 mM
